Assay results published in publication PMC7080406 (eLife, 2020).
Several values for one entry are separate records, joined by “and”; a condition that tells them apart may be missing. Equal entries are not always repeated. Entries after “also recorded” stand apart in the source; their conditions may differ. Where two headings read alike, the source gives them in different places.

Tests used:
MT1 [1] = target: T1, MT1 (Homo sapiens, UniProt P48039); assay: GloSensor Gi/o-mediated cAMP production inhibition assay, MT1; type: cell-based; conditions: for EC50: Gi/o mediated
T1 construct: expressed in transfected cells; host or cells: HEK293T (ATCC CRL-11268), transient transfection
T1 sequence (P48039 whole entry): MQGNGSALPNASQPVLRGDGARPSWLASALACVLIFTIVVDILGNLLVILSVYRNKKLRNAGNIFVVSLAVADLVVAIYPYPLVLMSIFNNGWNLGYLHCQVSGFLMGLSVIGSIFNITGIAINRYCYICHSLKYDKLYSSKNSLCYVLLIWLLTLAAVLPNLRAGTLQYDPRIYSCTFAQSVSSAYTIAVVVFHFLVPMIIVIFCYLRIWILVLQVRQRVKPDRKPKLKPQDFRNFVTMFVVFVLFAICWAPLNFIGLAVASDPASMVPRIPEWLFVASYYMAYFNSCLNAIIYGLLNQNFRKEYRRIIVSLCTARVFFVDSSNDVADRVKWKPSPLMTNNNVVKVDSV
Method: (§1) Briefly, HEK293 T cells (as above) were transiently co-transfected with receptor (MT1 or MT2) and GloSensor cAMP (Promega) plasmids overnight, plated in Poly-L-Lysine coated 384-well white clear bottom plates in DMEM + 1% dialyzed FBS. Cells were used for assays at a minimum of 6 hr after plating. Culture medium was first removed and cells were stimulated with drugs in assay buffer (1x HBSS, 20 mM HEPES, 1 mg/ml BSA, 0.1 mg/ml ascorbic acid, pH 7.4) for 15 min at room temperature (this and all the following steps), followed by addition of a mixture of isoproterenol (final of 100 nM) and luciferin (final of 1 mM) for Gi/o-cAMP production inhibition assays and luciferin (final of 1 mM) for Gs-cAMP production assays. The plates were counted for luminescence after 25 min in a luminescence plate reader. Results were analyzed using GraphPad Prism 7.0.

MT2 [2] = target: T2, MT2 (Homo sapiens, UniProt P49286); assay: [3H]melatonin competition radioligand binding, MT2 membranes; design: expressed in transfected cells; host or cells: HEK293T (ATCC CRL-11268), transient transfection; conditions: read-out: MT2 pKi ± SEM (converted)
T2 sequence (P49286 1-362): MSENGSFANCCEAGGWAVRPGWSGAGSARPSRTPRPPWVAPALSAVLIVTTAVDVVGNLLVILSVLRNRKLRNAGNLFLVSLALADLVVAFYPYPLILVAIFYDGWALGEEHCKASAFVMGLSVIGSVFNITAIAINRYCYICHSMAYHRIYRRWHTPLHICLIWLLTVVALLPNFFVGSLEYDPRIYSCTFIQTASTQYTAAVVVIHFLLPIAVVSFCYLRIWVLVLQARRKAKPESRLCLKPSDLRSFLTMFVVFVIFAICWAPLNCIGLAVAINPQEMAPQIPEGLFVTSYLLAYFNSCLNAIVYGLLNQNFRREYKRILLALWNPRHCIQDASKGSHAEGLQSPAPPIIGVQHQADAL
Method: (§2) The Radioligand binding assays were conducted by the NIMH Psychoactive Drug Screening Program (PDSP). The NIMH PDSP is directed by Bryan L. Roth, MD, PhD, at the University of North Carolina at Chapel Hill, North Carolina, and Program Officer Jamie Driscoll at NIMH, Bethesda, MD. Binding assay procedures and protocols are also available online at http://pdspdb.unc.edu/pdspWeb/?site=assays. […] Assay plates were sealed and incubated for 4 hr at 37°C in a humidified incubator until harvesting. Plates were harvested using vacuum filtration onto 0.3% polyethyleneimine pre-soaked 96-well Filtermat A (PerkinElmer) and washed three times with cold wash buffer (50 mM Tris, pH 7.4). Filters were dried and melted with a scintillation cocktail (Meltilex, PerkinElmer). Radioactivity was counted using a Wallac TriLux Microbeta counter (PerkinElmer). Results were analyzed using GraphPad Prism 7.0.

MT2 [3] = target: T2, MT2; assay: Tango β-arrestin recruitment assay, MT2; type: cell-based; design: expressed in transfected cells; transient transfection; conditions: result in words; compared to G-protein
Method: Tango arrestin recruitment assays were carried out according to the previously published procedure [Kroeze et al. (2015)]. In brief, HTLA cells were transiently transfected with receptor TANGO DNA constructs overnight in DMEM with 10% FBS. Transfected cells were then plated into poly-L-Lys coated 384-well plates using DMEM supplemented with 1% dialyzed FBS. After 6 hr incubation, drug dilutions, prepared in DMEM with 1% dFBS, were added for incubation overnight (16–20 hr). Medium and drug solutions were removed, Bright-Glo reagent (20 uL/well) was added for luminescence counting 20 min later. Results were analyzed in GraphPad Prism 7.0.

MT2 [4] = target: T2, MT2; assay: Bias factor, Gi-cAMP versus Tango (Black and Leff operational model), MT2; type: cell-based; design: expressed in transfected cells; host or cells: HEK293T (ATCC CRL-11268), transient transfection; conditions: G-protein over β-arrestin at MT2; reference melatonin; 10^ΔΔLog(τ/KA)
Method: Bias factors were estimated according to the published procedure [Kenakin et al. (2012)] with modifications. Briefly, normalized and pooled results were analyzed by fitting the Black and Leff operational model in Prism 7.0 to obtain Log(τ/KA) values for each pathway (Tango and Gi-cAMP). Within each signaling pathway, a difference of Log(τ/KA), ΔLog(τ/KA), between a test compound and selected reference (melatonin in this case) was calculated. For a testing compound, the difference of ΔLog(τ/KA), ΔΔLog(τ/KA), was then obtained between two pathways. The bias factor is 10^ΔΔLog(τ/KA).

MT1 [5] = target: T1, MT1; assay: [3H]melatonin competition radioligand binding, MT1 membranes; conditions: read-out: MT1 pKi ± SEM (converted)
Method: as §2

MT2 [6] = target: T2, MT2; assay: GloSensor Gi/o-mediated cAMP production inhibition assay, MT2; type: cell-based; design: expressed in transfected cells; host or cells: HEK293T (ATCC CRL-11268), transient transfection
Method: as §1

[7] = system: panel of 47 common drug targets (GPCRs, ion-channels and transporters); assay: Binding profiling at a panel of 47 common drug targets; conditions: final concentration of 10 μM
Method: as §2, with “http://pdspdb.unc.edu/pdspWeb/?site=assays. All the radioligand binding assays were performed using membranes prepared from transiently transfected HEK293T cells (purchased from ATCC, CRL-11268, authenticated by the supplier using morphology, growth characteristics, and STR profiling and certified mycoplasma-free) and in standard binding buffer (50 mM Tris, 10 mM MgCl2, 0.1 mM EDTA, 0.1% BSA, 0.01% ascorbic acid, pH 7.4) as recently reported ([Stauch et al., 2019]).” for “http://pdspdb.unc.edu/pdspWeb/?site=assays.”

[8] = ligand efficiency (based on EC50)

In the case of `COc1ccnc(N(C)CCNC(C)=O)n1` [Compound 21, N-{2-[(4-methoxypyrimidin-2-yl)(methyl)amino]ethyl}acetamide], the EC50 (MT1 [1]; SEM, N = 3, read-out: MT1 pEC50 ± SEM (converted)) is reported as 12.3 nM, the EC50 (MT1 [1]; read-out: MT1 EC50) is reported as 12 nM and the “MT1 LE” value (MT1 [1]; [8]) is reported as 0.69 kcal/mol per non-hydrogen atom. For the same compound, the Emax (MT1 [1]; read-out: MT1 Emax ± SEM) was 93.8 ± 2.5%, the Ki (MT2 [2]) was 123 nM and the “β-arrestin signaling / arrestin recruitment at MT2” value (MT2 [3]) was “dramatically reduced arrestin recruitment; also recorded: marked reduction in β-arrestin signaling compared to G-protein”. The bias factor (MT2 [4]) was 15.5, the Ki (MT1 [5]) was 490 nM and the “MT2/MT1 Selectivity” value (MT2 [6]; Antilog (log(Emax/EC50) MT2 - log (Emax/EC50) MT1), values below 1 = MT1 selectivity) was 30 fold and 30.6 fold. For the same compound, the EC50 (MT2 [6]; Gi/o mediated, SEM, N = 3, read-out: MT2 pEC50 ± SEM (converted)) was 0.363 nM, the Emax (MT2 [6]; MT2, activation compared to melatonin, read-out: MT2 Emax ± SEM) was 86.1 ± 3.2% and the “MT2 LE” value (MT2 [6]; [8]) was 0.83 kcal/mol per non-hydrogen atom. For the same compound, the “binding at panel of 47 common drug targets” value [7] was “did not show any substantial binding”.
